Laboratory results: US8258162B2, “Catechol derivative, pharmaceutical composition containing the same, use of the catechol derivative, and use of the pharmaceutical composition” (Kissei Pharmaceutical Co., Ltd., priority 2008, dated 2012)

Tests used:
recombinant human COMT = target: T1, recombinant human COMT (Homo sapiens, UniProt P21964); assay: Human COMT inhibitory potency; assay type: biochemical; conditions: catechol substrate, [3H]-S-adenosyl-L-methionine, 37° C. 30 minutes
T1 construct: GST (N, cleaved yes); made in house; host or cells: E. coli BL21 (DE3) Codon Plus RP, pGEX-2T vector
T1 sequence (P21964 with tags, fused parts or gaps): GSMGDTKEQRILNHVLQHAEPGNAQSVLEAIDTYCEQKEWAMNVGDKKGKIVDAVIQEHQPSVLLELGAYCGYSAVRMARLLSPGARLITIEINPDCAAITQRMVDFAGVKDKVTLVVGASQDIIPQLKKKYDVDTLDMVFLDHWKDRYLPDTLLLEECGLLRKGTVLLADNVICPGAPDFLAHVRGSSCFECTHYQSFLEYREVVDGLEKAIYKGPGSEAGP

Rat brain COMT = assay: Inhibition of rat brain COMT activity after oral administration; conditions: 10 mg/kg oral, percentage of Control sample (100%); for Brain (COMT activity %) 1 hour: 1 hour after administration; for Brain (COMT activity %) 5 hours: 5 hours after administration
Rat liver COMT = assay: Inhibition of rat liver COMT activity after oral administration; conditions: 10 mg/kg oral, percentage of Control sample (100%); for Liver (COMT activity %) 1 hour: 1 hour after administration; for Liver (COMT activity %) 5 hours: 5 hours after administration
[1] = test system: rat cryopreserved hepatocytes; assay: Rat hepatocyte toxicities (cell viability, ATP activity); assay type: cell-based; conditions: concentration that shows 50% of the number of viable cells of control, 4 hours at 37° C.
[2] = test system: unilateral 6-hydroxydopamine-lesioned hemi-parkinsonian rats; assay: Potentiation of the efficacy of L-dopa in unilateral 6-hydroxydopamine-lesioned hemi-parkinsonian rats (turning behavior); assay type: in vivo, rat; conditions: 10 mg/kg oral with 5 mg/kg L-dopa and 30 mg/kg carbidopa; for Duration: duration of contralateral rotation response; for Total counts: summed contralateral rotation counts during drug action

| Structure (SMILES) | IC50 (recombinant human COMT) [nM] | EC50 [1] [nM] | other results |
| --- | --- | --- | --- |
| CCOC(=O)c1cc(O)c(O)c([N+](=O)[O-])c1C(=O)c1ccccc1 [Compound 1-1, Ethyl 2-benzoyl-4,5-dihydroxy-3-nitrobenzoate] | 7.8 | 262000 | Brain (COMT activity %) 1 hour (Rat brain COMT): 8.9%; Brain (COMT activity %) 5 hours (Rat brain COMT): 56.2%; Liver (COMT activity %) 1 hour (Rat liver COMT): 0.6%; Liver (COMT activity %) 5 hours (Rat liver COMT): 9.0%; Duration [2]: 522.5 min; Total counts [2]: 3188.3 |
| COC(=O)c1cc(O)c(O)c([N+](=O)[O-])c1C(=O)c1ccccc1 [Compound 1-2] | 8.9 | > 300000 | Duration [2]: 452.9 min; Total counts [2]: 3569.0 |
| CC(=O)c1ccc(C(=O)c2c(C(=O)OC(C)C)cc(O)c(O)c2[N+](=O)[O-])cc1 [Compound 1-7] | 4 |  |  |
| COC(=O)c1ccc(C(=O)c2c(C(=O)OC(C)C)cc(O)c(O)c2[N+](=O)[O-])cc1 [Compound 1-8] | 8.3 |  |  |
| CC(C)OC(=O)c1cc(O)c(O)c([N+](=O)[O-])c1C(=O)c1ccccc1C#N [Compound 1-9] | 7 |  |  |
| CCOC(=O)c1cc(O)c(O)c([N+](=O)[O-])c1C(=O)c1cccs1 [Compound 1-13] | 8.4 | > 300000 | Brain (COMT activity %) 1 hour (Rat brain COMT): 14.8%; Brain (COMT activity %) 5 hours (Rat brain COMT): 61.0%; Liver (COMT activity %) 1 hour (Rat liver COMT): 6.6%; Liver (COMT activity %) 5 hours (Rat liver COMT): 15.3%; Duration [2]: 461.4 min; Total counts [2]: 3395.7 |
| CCOC(=O)c1cc(O)c(O)c([N+](=O)[O-])c1C(=O)c1ccno1 [Compound 1-15] | 7.1 |  |  |
| CCOC(=O)c1cc(O)c(O)c([N+](=O)[O-])c1C(=O)c1nccs1 [Compound 1-18] | 4.7 |  |  |
| COC(=O)c1cc(O)c(O)c([N+](=O)[O-])c1C(C)=O [Compound 1-20] | 9.5 | > 300000 |  |
| CCOC(=O)c1cc(O)c(O)c([N+](=O)[O-])c1C(=O)C(F)(F)F [Compound 1-23] | 8.1 |  |  |
| Cc1ccc(C(=O)c2c(C#N)cc(O)c(O)c2[N+](=O)[O-])cc1 [Compound 1-27] | 9.7 | > 300000 |  |
| N#Cc1cc(O)c(O)c([N+](=O)[O-])c1C(=O)c1ccccc1F [Compound 1-29, 2-(2-fluorobenzoyl)-4,5-dihydroxy-3-nitrobenzonitrile] | 6.8 |  |  |
| N#Cc1cc(O)c(O)c([N+](=O)[O-])c1C(=O)C1CCCCC1 [Compound 1-34] | 8.1 | > 300000 | Brain (COMT activity %) 1 hour (Rat brain COMT): 62.2%; Brain (COMT activity %) 5 hours (Rat brain COMT): 78.7%; Liver (COMT activity %) 1 hour (Rat liver COMT): 0.0%; Liver (COMT activity %) 5 hours (Rat liver COMT): 1.0% |
| N#Cc1cc(O)c(O)c([N+](=O)[O-])c1C(=O)c1ccno1 [Compound 1-37] | 8.6 |  |  |
| Cc1cc(C(=O)c2c(C#N)cc(O)c(O)c2[N+](=O)[O-])no1 [Compound 1-38] | 8.6 | > 300000 |  |
| N#Cc1cc(O)c(O)c([N+](=O)[O-])c1C(=O)N1CCCCC1 [Compound 1-43] |  | > 300000 |  |
| Cc1ccc(C(=O)c2cc(O)c(O)c([N+](=O)[O-])c2)cc1 [Tolcapone, 3,4-dihydroxy-4′-methyl-5-nitro-benzophenone, reference compound] |  |  | Liver (COMT activity %) 1 hour (Rat liver COMT): 2.5%; Liver (COMT activity %) 5 hours (Rat liver COMT): 30.0%; Duration [2]: 430.0 min; Total counts [2]: 2578.7 |
| O=C(c1ccccc1)c1ccc(O)c(O)c1[N+](=O)[O-] [compound 1, (3,4-dihydroxy-2-nitrophenyl)phenymethanone, reference compound] | 40.4 |  |  |
| O=C(c1ccccc1)c1cc(O)c(O)c([N+](=O)[O-])c1C(=O)c1ccccc1 [compound 2, (6-benzoyl-3,4-dihydroxy-2-nitrophenyl)phenylmethanone, reference compound] | 54 |  |  |
| CCOC(=O)Oc1cc(C(=O)c2ccccc2)c(C(=O)c2ccccc2)c([N+](=O)[O-])c1OC(=O)OCC [compound 3, carbonic acid 4,5-dibenzoyl-2-ethoxycarbonyloxy-3-nitro-phenyl ester ethy ester, reference compound] | 1180 |  |  |
